Test results as given in ChEMBL document CHEMBL1201862, “PubChem BioAssay data set” (2004).
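Step 1: Grow cells in 96-well plates. Step 2: Expose to compound for 48 hours at 5 concentrations. Step 3: Interpolate endpoints linearly; if unreached, use highest concentration. Here, GI50 denotes the concentration required for 50% inhibition of growth.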 Active and inactive are the calls of the source. Cut-off read from the data, not from the text of the source: active = GI50 up to about 1.1 µM and inactive = higher.

Key:
Assay in all cases: DTP human tumour cell line panel, 48 h
[1] = tested on: MDA-MB-435
[2] = tested on: LOX IMVI
[3] = tested on: SF-268
[4] = tested on: OVCAR-3
[5] = tested on: TK-10
[6] = tested on: HOP-62
[7] = tested on: OVCAR-5
[8] = tested on: NCI/ADR-RES
[9] = tested on: A549
[10] = tested on: IGROV-1
[11] = tested on: MDA-MB-231
[12] = tested on: HCC 2998
[13] = tested on: CCRF-CEM
[14] = tested on: SW-620
[15] = tested on: UACC-62
[16] = tested on: HL-60
[17] = tested on: CAKI-1
[18] = tested on: UO-31
[19] = tested on: SR
[20] = tested on: COLO 205

Compound | GI50 [1] | GI50 [2] | GI50 [3] | GI50 [4] | GI50 [5] | GI50 [6] | GI50 [7] | GI50 [8] | GI50 [9] | GI50 [10] | GI50 [11] | GI50 [12] | GI50 [13] | GI50 [14] | GI50 [15] | GI50 [16] | GI50 [17] | GI50 [18] | GI50 [19] | GI50 [20]
COC(=O)C(=O)C(C(=O)C(=O)Nc1nnc(S)[nH]1)c1nc2ccc([N+](=O)[O-])cc2nc1O (stereo not given) | > 100 µM (inactive) | > 100 µM (inactive) | > 100 µM (inactive) | > 100 µM (inactive) | > 100 µM (inactive) | > 100 µM (inactive) | > 100 µM (inactive) | > 100 µM (inactive) | > 100 µM (inactive) | 91.4 µM (inactive) | > 100 µM (inactive) | > 100 µM (inactive) | > 100 µM (inactive) | > 100 µM (inactive) | > 100 µM (inactive) | > 100 µM (inactive) | > 100 µM (inactive) | 82.8 µM (inactive) | – | –
CCCN1C(=O)CN(S(=O)(=O)c2ccc(Cl)cc2)C1=O | > 100 µM (inactive) | > 100 µM (inactive) | > 100 µM (inactive) | > 100 µM (inactive) | > 100 µM (inactive) | > 100 µM (inactive) | > 100 µM (inactive) | – | > 100 µM (inactive) | > 100 µM (inactive) | > 100 µM (inactive) | > 100 µM (inactive) | > 100 µM (inactive) | > 100 µM (inactive) | > 100 µM (inactive) | > 100 µM (inactive) | > 100 µM (inactive) | > 100 µM (inactive) | 71 µM (inactive) | > 100 µM (inactive)
O=C1CCSCCC(=O)Nc2ccccc2N1 | > 100 µM (inactive) | > 100 µM (inactive) | > 100 µM (inactive) | > 100 µM (inactive) | > 100 µM (inactive) | > 100 µM (inactive) | > 100 µM (inactive) | > 100 µM (inactive) | > 100 µM (inactive) | > 100 µM (inactive) | > 100 µM (inactive) | – | > 100 µM (inactive) | > 100 µM (inactive) | > 100 µM (inactive) | > 100 µM (inactive) | > 100 µM (inactive) | > 100 µM (inactive) | > 100 µM (inactive) | > 100 µM (inactive)
COc1c(O)c2c(c3cc(C(=O)N4CCc5c4c(O)c(OC)c4[nH]c(C(=O)N6CC7CC78C6=CC(=O)c6[nH]cc(C)c68)cc54)[nH]c13)CCN2C(N)=O (stereo not given) [CC-1065] | 0.182 µM (active) | 0.000895 µM (active) | 0.00259 µM (active) | 0.0197 µM (active) | 0.0266 µM (active) | – | – | – | 0.000232 µM (active) | – | 0.486 µM (active) | 0.114 µM (active) | 0.00507 µM (active) | 0.00105 µM (active) | 0.00187 µM (active) | 0.00783 µM (active) | 0.000975 µM (active) | 0.00834 µM (active) | 0.00914 µM (active) | 0.00168 µM (active)
CC1(C)OCC(C2OC(C)(C)OC2[C@H]2O[C@@]3(O)[C@H]4[C@H](C=CC[C@@H]42)[C@@H](OCc2ccccc2)[C@H](OCc2ccccc2)[C@H]3OCc2ccccc2)O1 (stereo not given in full) | 31.7 µM (inactive) | 22.6 µM (inactive) | 70 µM (inactive) | 52.2 µM (inactive) | 32.4 µM (inactive) | > 100 µM (inactive) | 54.3 µM (inactive) | 28.6 µM (inactive) | 24.8 µM (inactive) | 71 µM (inactive) | 94.8 µM (inactive) | – | 8.63 µM (inactive) | 27.8 µM (inactive) | 19.3 µM (inactive) | 14.4 µM (inactive) | 79.1 µM (inactive) | 31 µM (inactive) | 11 µM (inactive) | > 100 µM (inactive)
CNNC1=NS(=O)(=O)c2cc(C#N)c(Cl)cc2S1 | > 10 µM (inactive) | > 10 µM (inactive) | > 10 µM (inactive) | > 10 µM (inactive) | > 10 µM (inactive) | > 10 µM (inactive) | > 10 µM (inactive) | > 10 µM (inactive) | > 10 µM (inactive) | > 10 µM (inactive) | > 10 µM (inactive) | > 10 µM (inactive) | > 10 µM (inactive) | > 10 µM (inactive) | > 10 µM (inactive) | > 10 µM (inactive) | > 10 µM (inactive) | 1.68 µM (inactive) | – | > 10 µM (inactive)
O=C(O)c1nc2cc(C(F)(F)F)ccc2nc1Nc1ccc(F)cc1 | 7.71 µM (inactive) | 18.7 µM (inactive) | 22.3 µM (inactive) | 15.8 µM (inactive) | 20 µM (inactive) | – | 35.1 µM (inactive) | 20 µM (inactive) | 11.2 µM (inactive) | 18.7 µM (inactive) | 22.9 µM (inactive) | – | 12.6 µM (inactive) | 17.3 µM (inactive) | 12.6 µM (inactive) | – | 25.2 µM (inactive) | 15.8 µM (inactive) | 17.1 µM (inactive) | 15.9 µM (inactive)
C/C(=C1/N=C(c2ccccc2)OC1=O)c1cccs1 | > 100 µM (inactive) | > 100 µM (inactive) | > 100 µM (inactive) | > 100 µM (inactive) | > 100 µM (inactive) | 55 µM (inactive) | > 100 µM (inactive) | – | 64.7 µM (inactive) | 63.7 µM (inactive) | 66.7 µM (inactive) | > 100 µM (inactive) | > 100 µM (inactive) | > 100 µM (inactive) | > 100 µM (inactive) | > 100 µM (inactive) | > 100 µM (inactive) | – | > 100 µM (inactive) | > 100 µM (inactive)
